We go through one compound from patent US20090239757A1, “Control Sequences Responding to AMP and Uses Thereof” (priority 2004, published 2009).

For test [1], the system named is Gram-positive and Gram-negative bacteria. Particulars: U.S. Pat. No. 6,492,328; cited from earlier work.
The next test relates to E. coli. The test is described as follows: growth and killing of E. coli on induced expression of novispirin (Suicide Expression System). The test is classed as cell-based, Escherichia coli. The text has this:
In the examples below the method of the invention has been illustrated using novispirin as the antimicrobial peptide and E. coli as the host cell. To assess the sustained physiological response of E. coli to novispirin, an arabinose induction system was used to make E. coli produce novispirin at a sub-lethal rate. […] These categories comprise particularly genes related to membrane dysfunction, heat shock, phage shock and antimicrobial peptide defense.
A plasmid was constructed to investigate the transcriptional response of E. coli upon expressing Novispirin G10 in a Suicide Expression System (SES) setup. The SES takes advantage of conditionally expressing antimicrobial peptides in a sensitive host. The degree of inhibition in the host reflects the potency of the antimicrobial peptide (AMP) (WO200073433). In the current setup, the AMP is exported to the periplasmic space where it interacts with the inner and/or outer membrane of E. coli.
In order to obtain a transcriptional profile of E. coli expressing Novispirin G10, 2×10 mL sterile LB media (10 g/L Bactotryptone, 5 g/L Yeast extract, and 10 g/L NaCl) containing 100 mg/L ampicillin was inoculated with E. coli TOP10 harbouring pDRS5-novispirin and pBAD gIII A, respectively. These cultures were grown overnight at 37° C. at 180 rpm. […]

Residues, ends and D or L forms follow the SMILES beside them.

As to `CC[C@H](C)[C@H](NC(=O)CNC(=O)[C@H](CCCCN)NC(=O)[C@H](CCCNC(=N)N)NC(=O)[C@@H](NC(=O)[C@@H](NC(=O)[C@H](CCCNC(=N)N)NC(=O)[C@H](CCCNC(=N)N)NC(=O)[C@H](CC(C)C)NC(=O)[C@H](CC(N)=O)NC(=O)[C@@H](N)CCCCN)[C@@H](C)CC)[C@@H](C)CC)C(=O)N[C@@H](Cc1c[nH]cn1)C(=O)N[C@H](C(=O)N[C@H](C(=O)N[C@@H](CCCCN)C(=O)N[C@@H](CCCCN)C(=O)N[C@@H](Cc1ccc(O)cc1)C(=O)NCC(=O)O)[C@@H](C)CC)[C@@H](C)CC` [Novispirin G10] (H-KNLRRIIRKGIHIIKKYG-OH; N-terminus assumed), in test [1], the antimicrobial activity entry is “activity against both Gram-positive and Gram-negative bacteria”. The “growth rate on induction of novispirin expression” value in the test on E. coli (arabinose induction, sub-lethal rate, growth was not completely inhibited) is on record as “reduced the growth rate significantly”. Further, the “inhibition and killing of the host when the AMP is expressed” value in the test on E. coli (expressed and exported to the periplasmic space, as opposed to adding purified peptide to a cell culture) is “prolong the inhibition and delay killing”.
